Source: publication PMC7413074 (Journal of pharmacy & pharmaceutical sciences : a …, 2019)
Read-outs that look alike come from different tables or passages of the source.

How the values were obtained:
[1] = test system: medulloblastoma/primitive neuroectodermal tumor (cell line JRMB-6); details: single agent, 130 mg/kg IP daily for five consecutive days; cited from earlier work
in vivo [2] = details: CD1-nude, mouse, Kp,uu (unbound ECF to plasma partition coefficient), mean (SD)
[3] = female, CD1-nude, mouse, in vivo
[4] = CD1-nude, mouse
in vivo [5] = details: female, CD1-nude, mouse, ip, 130 mg/kg
in vitro = details: CD1, mouse, plasma
[6] = humans; cited from earlier work

For `O=P1(N(CCCl)CCCl)NCCCO1` (stereo not drawn) [cyclophosphamide], the Response rate [1] is listed as 85%, the “Survival versus saline controls” value [1] is listed as “statistically improved survival” and the Kp uu (in vivo [2]) is listed as 0.22. The “Central clearance CL, estimate (RSE%)” value [3] was 4.4 (3.7) L/h/kg, the “Central volume V, estimate (RSE%)” value [3] was 0.65 (5.0) L/kg and the “Inter-individual variability, central clearance η-CL, estimate (RSE%)” value [3] was 0.11 (17). For the same molecule, the “Peripheral clearance Q, estimate (RSE%)” value [3] was 0.18 (4.3) L/h/kg, the “Peripheral volume Vp, estimate (RSE%)” value [3] was 0.062 (2.6) L/kg and the “Proportional residual variability εprop, estimate (RSE%)” value [3] was 0.24 (11). The “Mean observed maximum concentrations” value ([3]; ip, 130 mg/kg) was 352.9 µM, the “AUCECF,0-5h (unbound brain ECF exposure), mean (SD)” value ([4]; in vivo) was 6.3 (1.3) μM·h and the “AUCECF,0-5h (unbound tumor ECF exposure), mean (SD)” value ([4]; in vivo) was 4.0 (1.4) μM·h. The “AUCECF,0-5h (unbound tumor or brain ECF exposure), mean (SD)” value ([4]; in vivo) was 5.2 (1.8) μM·h, the “Influx clearance CLin, estimate (RSE%)” value ([4]; in vivo) was 4.3·10^−4 (16) L/h/kg and the “Inter-individual variability, influx clearance η-CLin, estimate (RSE%)” value ([4]; in vivo) was 0.31 (51). The “Proportional residual variability εprop, estimate (RSE%)” value ([4]; in vivo) was 0.45 (12), the “Efflux clearance CLef, estimate (RSE%)” value ([4]; not told) was 2.4·10^−3 (7.0) L/h/kg and the “Inter-individual variability, efflux clearance η-CLef, estimate (RSE%)” value ([4]; not told) was 0.23 (22). The AUC (in vivo [5]) was 113 µM·h, the fraction unbound (in vitro) was 0.26 and the “FU (fraction unbound)” value [6] was 7-17%.
